Test results taken from patent US6472415B1, “Androgen receptor suppressors in the therapy and diagnosis of prostate cancer, alopecia and other hyper-androgenic syndromes” (priority 1998, dated 2002).
Entries after “also recorded” stand apart in the source; their conditions may differ. Read-outs that look alike come from different tables or passages of the source.

Experiments:
[1] = Systemic toxicity, repeated i.p. injection in mice; assay type: in vivo; conditions: for Dose with morbidity but no mortality / Dose given without mortality or morbidity: i.p. every 2nd day; for Dose given without mortality or morbidity: 5 times
Experimental: Systemic toxicity was orientationally evaluated by i.p. injection every 2nd day in mice. […] For BP-34, the corresponding values were 150 mg/kg bw and 300 mg/kg bw.
The maximum tolerated dose should thus be approximately 300 mg/kg. For BP-34, i.p. injections of 100-300 mg/kg produce no mortalities in mice. […] Therefore, the maximum tolerated dose of BP-34 should be approximately 250 mg/kg.

androgen receptor = target: T1, androgen receptor (Homo sapiens, UniProt P10275, T878A); experiment: Androgen receptor remaining in LNCaP cell lysate, Western Blot; assay type: cell-based; conditions: for Percent Androgen Receptor Remaining / Percent of the androgen receptor remaining / Effect on the AR: LNCaP; for Percent Androgen Receptor Remaining: Table 7 controls, incubation time not given; for Percent of the androgen receptor remaining: 48 hours; for Effect on the AR: Western Blot; for Suppression of the AR: 3 μM concentration; for Elimination of the AR: 10 μM concentration
T1 construct: endogenous in cells; host or cells: LNCaP human prostate cancer cells
Experimental: The interaction of the compounds with AR was studied by incubation with LNCaP cells, subsequent cell lysis and the standard Western Blot assay.

[2] = tested on: human prostate cancer cells LNCaP; experiment: XXT cell viability assay, 72 hours; assay type: cell-based
Experimental: After 72 hours, an XXT assay (Scudievo, et al., Cancer Research, 48:4827 (1988)) indicating cell viability was carried out.

[3] = not given; remark: listed apart in the source
androgenic alopecia = conditions: three male volunteers, 1% solution in ethanol
[4] = rabbits, 2× daily 0.5 mL of 10% solution in 50/50 PEG 400/EtOH, shaved skin 20 cm^2; HPLC sensitivity 5 nanograms
[5] = tested on: prostate and seminal vesicles; experiment: Weight of prostate and seminal vesicles (secondary sex organs) in rats; assay type: in vivo; conditions: for Reduction of secondary sex organs' weight: castrated rats supplemented with testosterone propionate
Experimental: (The dose of 0.1 mg/kg approximates the expected topical daily dose for humans).

[6] = remark: listed apart in the source
Experimental: Compounds were tested for stability in human serum at 38° C. They were dissolved in isopropanol/H2O (95:5), mixed with human serum to a concentration of 0.5 mg/mL, and incubated at 38° C. Serum aliquots were extracted with ethyl acetate and analyzed by HPLC.
(Permadi, H.; Lundgren, B.; Andersson, K.; Sundberg, C.; DePierre, J. W. Effects of perfluoro fatty acids on peroxisome proliferation and mitochondrial size in mouse liver: dose and time factors and effect of chain length. Xenobiotica, 91993) Vol. 23, No. 7, pp.761-70).

[7] = i.m., 75 mg/kg bw
[8] = Tissue distribution 4 hours after intravenous injection in male rats; conditions: 300 g male rats, after 4 hours
[9] = isopropanol/H2O (95:5), 50° C., up to six days
[10] = Cockshott et al. 1990; cited from earlier work
[11] = Takagi et al. 1991; cited from earlier work
[12] = Rabbit, skin 20 cm^2, 100 mg/d, 10 d

T1 sequence (P10275 whole entry T878A): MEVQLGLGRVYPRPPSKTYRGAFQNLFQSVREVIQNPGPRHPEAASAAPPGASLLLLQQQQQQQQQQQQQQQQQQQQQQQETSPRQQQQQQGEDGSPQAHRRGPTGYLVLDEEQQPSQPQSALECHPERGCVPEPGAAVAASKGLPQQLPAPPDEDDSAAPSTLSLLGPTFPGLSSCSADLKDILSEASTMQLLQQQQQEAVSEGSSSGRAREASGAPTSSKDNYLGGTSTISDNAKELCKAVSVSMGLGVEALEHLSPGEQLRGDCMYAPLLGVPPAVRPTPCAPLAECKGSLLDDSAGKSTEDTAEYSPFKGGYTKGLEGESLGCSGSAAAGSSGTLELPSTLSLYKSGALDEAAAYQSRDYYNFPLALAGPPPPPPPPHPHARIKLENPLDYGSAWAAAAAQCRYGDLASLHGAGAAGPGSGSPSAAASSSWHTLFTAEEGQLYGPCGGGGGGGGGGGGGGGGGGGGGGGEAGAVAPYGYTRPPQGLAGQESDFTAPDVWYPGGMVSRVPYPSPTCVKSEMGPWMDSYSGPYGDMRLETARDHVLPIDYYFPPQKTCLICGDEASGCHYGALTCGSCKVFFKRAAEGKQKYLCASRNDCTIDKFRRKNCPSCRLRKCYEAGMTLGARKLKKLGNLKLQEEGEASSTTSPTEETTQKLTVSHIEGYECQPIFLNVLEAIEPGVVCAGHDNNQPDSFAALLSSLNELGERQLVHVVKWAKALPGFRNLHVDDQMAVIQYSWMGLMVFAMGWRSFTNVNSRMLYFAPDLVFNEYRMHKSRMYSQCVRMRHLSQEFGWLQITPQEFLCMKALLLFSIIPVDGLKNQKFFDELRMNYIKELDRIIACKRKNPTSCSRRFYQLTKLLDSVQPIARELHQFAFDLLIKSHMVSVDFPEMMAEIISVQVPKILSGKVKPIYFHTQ

CC(O)(CNCC(C)(O)C(=O)Nc1ccc(Cl)cc1)C(=O)Nc1ccc(Cl)cc1 (stereo not shown)
melting point: 76 to 78 °C

CC(O)(CN)C(=O)Nc1ccc([N+](=O)[O-])c(C(F)(F)F)c1 (stereo not shown) [BP-34, 4-nitro-3-trifluoromethyl-N-(2-hydroxy-2-methyl-3-aminopropionyl)aniline]
Dose with morbidity, but not mortality ([1]; i.p.): 300 mg/kg
i.p. doses producing no mortalities ([1]; i.p.): 100 to 300 mg/kg
Dose with morbidity but no mortality [1]: 300 mg/kg bw
Dose given without mortality or morbidity [1]: 150 mg/kg bw
MTD ([1]; mouse, in vivo, ip, read-out: Maximum tolerated dose): ~250 mg/kg
Percent Androgen Receptor Remaining (androgen receptor; 3μ Molar conc): 97%
Percent of the androgen receptor remaining (androgen receptor; 3μ Molar conc.): 97%
Percent Androgen Receptor Remaining (androgen receptor; 10μ Molar conc): 98%
Percent of the androgen receptor remaining (androgen receptor; 10μ Molar conc.): 98%
Effect on the AR (androgen receptor): no effect
Effect on the LNCaP cells [2]: no effect

CC(O)(CNC(=O)C(F)(F)C(F)(F)C(F)(F)F)C(=O)Nc1ccc([N+](=O)[O-])c(C(F)(F)F)c1 (stereo not shown) [BP-521, 4-nitro-3-trifluoromethyl-N-(2′-hydroxy-2′-methyl-3′-N-(heptafluorobutyramido)propionyl)aniline]
Dose with morbidity but no mortality [1]: 350 mg/kg bw
Dose given without mortality or morbidity [1]: 200 mg/kg bw
μg/ml blood ([3]; Rabbit ~3 kg, i.p., 150 mg/kg bw, 0.5 hrs): 1.9 µg/mL
μg/ml blood ([3]; Rabbit ~3 kg, oral, 100 mg/kg bw, 0.5 hrs): 1.5 µg/mL
μg/ml blood ([3]; Rabbit ~3 kg, skin 20 cm^2, 100 mg/d, 10 d, 0.5 hrs): 0 µg/mL
Cumulative % dose ([3]; Rabbit, i.p., 150 mg/kg bw): 2.8%
Cumulative mg/total blood volume ([3]; Rabbit, i.p., 150 mg/kg bw): 11.6 µg
μg/ml blood ([3]; Rabbit, i.p., 150 mg/kg bw, 1.0 hrs): 3.2 µg/mL
μg/ml blood ([3]; Rabbit, i.p., 150 mg/kg bw, 1.5 hrs): 1.9 µg/mL
μg/ml blood ([3]; Rabbit, i.p., 150 mg/kg bw, 2.5 hrs): 1.5 µg/mL
μg/ml blood ([3]; Rabbit, i.p., 150 mg/kg bw, 7.0 hrs): 3.0 µg/mL
μg/ml blood ([3]; Rabbit, i.p., 150 mg/kg bw, 24 hrs): 2.2 µg/mL
Cumulative % dose ([3]; Rabbit, oral, 100 mg/kg bw): 1.50%
Cumulative mg/total blood volume ([3]; Rabbit, oral, 100 mg/kg bw): 3.0 µg
μg/ml blood ([3]; Rabbit, oral, 100 mg/kg bw, 1.0 hrs): 1.7 µg/mL
μg/ml blood ([3]; Rabbit, oral, 100 mg/kg bw, 1.5 hrs): 2.6 µg/mL
μg/ml blood ([3]; Rabbit, oral, 100 mg/kg bw, 2.5 hrs): 1.5 µg/mL
μg/ml blood ([3]; Rabbit, oral, 100 mg/kg bw, 7.0 hrs): 1.0 µg/mL
μg/ml blood ([3]; Rabbit, oral, 100 mg/kg bw, 24 hrs): 1.0 µg/mL
Cumulative % dose [3, 12]: 0%
Cumulative mg/total blood volume [3, 12]: 0 µg
μg/ml blood ([3]; Rabbit, skin 20 cm^2, 100 mg/d, 10 d, 1.0 hrs): 0 µg/mL
μg/ml blood ([3]; Rabbit, skin 20 cm^2, 100 mg/d, 10 d, 1.5 hrs): 0 µg/mL
μg/ml blood ([3]; Rabbit, skin 20 cm^2, 100 mg/d, 10 d, 2.5 hrs): 0 µg/mL
μg/ml blood ([3]; Rabbit, skin 20 cm^2, 100 mg/d, 10 d, 7.0 hrs): 0 µg/mL
μg/ml blood ([3]; Rabbit, skin 20 cm^2, 100 mg/d, 10 d, 24 hrs): 0 µg/mL
Bioavailability ([3]; from the subcutaneous, muscle and intraperitoneal spaces): low
Peak serum levels as % of the injected dose ([3]; oral test): 0.0052%
Effect on incipient androgenic alopecia of the forehead line (androgenic alopecia; 0.5 mL twice daily on scalp): effectively arrested incipient androgenic alopecia
Hair growth (androgenic alopecia; 0.5 mL twice daily, after 8 weeks): induced copious growth of vellum hair
Topical absorption [4]: No absorption was found
Reduction of secondary sex organs' weight ([5]; 0.1 mg/kg): did not reduce
Reduction of average weight of prostate and seminal vesicles ([5]; intact rats, 10 times subcutaneously 100 mg/kg): about 46%
Percent of the intact compound remaining in human serum ([6]; human, serum, 6 h): 97.5%
Percent of the intact compound remaining in human serum ([6]; human, serum, 24 h): 90.0%
Percent of the intact compound remaining in human serum ([6]; human, serum, 48 h): 84.0%
Percent of the intact compound remaining in human serum ([6]; human, serum, 144 h): 60.0%
μg/ml blood ([7]; Rat ~140 g, 0.5 hrs): 0.7 µg/mL
Cumulative % dose ([7]; Rat): 2.9%
Cumulative mg/total blood volume ([7]; Rat): 2.1 µg
μg/ml blood ([7]; Rat, 1.0 hrs): 4.7 µg/mL
μg/ml blood ([7]; Rat, 1.5 hrs): 2.2 µg/mL
μg/ml blood ([7]; Rat, 24 hrs): 1.0 µg/mL

CC(O)(CSCC=C([125I])[125I])C(=O)Nc1ccc(C#N)c(C(F)(F)F)c1 (stereo not shown) [BP-554]
Accumulation in the prostate vis-a-vis other tissues [8]: substantial accumulation in the prostate

CC(O)(COC/C=C/[125I])C(=O)Nc1ccc(C#N)c(C(F)(F)F)c1 (stereo not shown) [BP-636]
Accumulation in the prostate vis-a-vis other tissues [8]: substantial accumulation in the prostate

CC(O)(CNC(=S)Nc1ccc(Br)cc1)C(=O)Nc1ccc([N+](=O)[O-])c(C(F)(F)F)c1 (stereo not shown) [BP-668, 3-((((4-bromophenyl)amino)thioxomethyl)amino)-2-hydroxy-2-methyl-N-(4-nitro-3-(trifluoromethyl)phenyl)propanamide]
Suppression of the AR (androgen receptor): important suppression
Elimination of the AR (androgen receptor): practically eliminated the AR
Percent of the androgen receptor remaining (androgen receptor; 3μ Molar conc.): 73%
Percent of the androgen receptor remaining (androgen receptor; 10μ Molar conc.): 0%
Reduction of secondary sex organs' weight ([5]; 0.1 mg/kg): did not reduce
Percent of the intact compound remaining in human serum ([6]; 38° C., 0.5 mg/mL, 24 h): 100%
Percent of the intact compound remaining in human serum ([6]; 38° C., 0.5 mg/mL, 48 h): 100%
Percent of the intact compound remaining in human serum ([6]; 38° C., 0.5 mg/mL, 6 d): 100%
melting point: 192 to 195 °C
Change via HPLC in accelerated stability study [9]: no change was observed

CC(O)(CNCC(C)(O)C(=O)Nc1ccc([N+](=O)[O-])c(C(F)(F)F)c1)C(=O)Nc1ccc([N+](=O)[O-])c(C(F)(F)F)c1 (stereo not shown) [BP-673, 2-hydroxy-3-((2-hydroxy-2-(N-(4-nitro-3-(trifluoromethyl)phenyl)carbamoyl)propyl)amino)-2-methyl-N-(4-nitro-3-(trifluoromethyl)phenyl)propionamide]
Suppression of the AR (androgen receptor): important suppression
Elimination of the AR (androgen receptor): practically eliminated the AR
Percent of the androgen receptor remaining (androgen receptor; 3μ Molar conc.): 74%
Percent of the androgen receptor remaining (androgen receptor; 10μ Molar conc.): 3%
Percent of the intact compound remaining in human serum ([6]; 38° C., 0.5 mg/mL, 24 h): 100%
Percent of the intact compound remaining in human serum ([6]; 38° C., 0.5 mg/mL, 48 h): 100%
Percent of the intact compound remaining in human serum ([6]; 38° C., 0.5 mg/mL, 6 d): 100%
Change via HPLC in accelerated stability study [9]: no change was observed

CC(O)(CNCCOCCOCCNCC(C)(O)C(=O)Nc1ccc([N+](=O)[O-])c(C(F)(F)F)c1)C(=O)Nc1ccc([N+](=O)[O-])c(C(F)(F)F)c1 (stereo not shown) [BP-676]
Percent of the androgen receptor remaining (androgen receptor; 3μ Molar conc.): 64%
Percent of the androgen receptor remaining (androgen receptor; 10μ Molar conc.): 20%

CCCNC(=S)Nc1ccc(C#N)c(C(F)(F)F)c1 [BP-735, N-(3-trifluoromethyl-4-cyanophenyl), N′-propyl thiourea]
Suppression of the AR (androgen receptor): important suppression
Elimination of the AR (androgen receptor): practically eliminated the AR
Percent of the androgen receptor remaining (androgen receptor; 3μ Molar conc.): 45%
Percent of the androgen receptor remaining (androgen receptor; 10μ Molar conc.): 1%

CC(O)(CNC(=O)Nc1ccc(I)cc1)C(=O)Nc1ccc([N+](=O)[O-])c(C(F)(F)F)c1 (stereo not shown) [BP-754]
Percent of the androgen receptor remaining (androgen receptor; 3μ Molar conc.): 28%
Percent of the androgen receptor remaining (androgen receptor; 10μ Molar conc.): 14%

CC(O)(CS(=O)(=O)c1ccc(F)cc1)C(=O)Nc1ccc(C#N)c(C(F)(F)F)c1 (stereo not shown) [Bicalutamide, reference compound]
Peak serum levels as % of the dose, reported [10]: 0.03%
Reduction of secondary sex organs' weight ([5]; 0.5 mg/kg): about 20%

CC(C)(O)C(=O)Nc1ccc([N+](=O)[O-])c(C(F)(F)F)c1 [Hydroxyflutamide, reference compound]
Percent Androgen Receptor Remaining (androgen receptor; 3μ Molar conc): 98%
Percent of the androgen receptor remaining (androgen receptor; 3μ Molar conc.): 98%
Percent Androgen Receptor Remaining (androgen receptor; 10μ Molar conc): 94%
Percent of the androgen receptor remaining (androgen receptor; 10μ Molar conc.): 94%
Effect on the AR (androgen receptor): have not shown any significant effect on the AR; also recorded: have not shown any significant suppression of the AR

O=C(O)C(F)(F)C(F)(F)C(F)(F)F [perfluorobutyric acid]
Toxicity [11]: low toxicity
